Assay results as given in US20140329275A1, “BIOCATALYSIS CELLS AND METHODS” (REGENTS OF THE UNIVERSITY OF MINNESOTA, priority 2011, published 2014).

Tests used:
KIVD = conditions: Yep et al., Bioorg. Chem. 34:325-336 (2006); cited from earlier work
IPDC = IPDC (Salmonella enterica, UniProt H9L492); conditions: ketoleucine vs ketovaline
IPDC, sequence (H9L492 1-550): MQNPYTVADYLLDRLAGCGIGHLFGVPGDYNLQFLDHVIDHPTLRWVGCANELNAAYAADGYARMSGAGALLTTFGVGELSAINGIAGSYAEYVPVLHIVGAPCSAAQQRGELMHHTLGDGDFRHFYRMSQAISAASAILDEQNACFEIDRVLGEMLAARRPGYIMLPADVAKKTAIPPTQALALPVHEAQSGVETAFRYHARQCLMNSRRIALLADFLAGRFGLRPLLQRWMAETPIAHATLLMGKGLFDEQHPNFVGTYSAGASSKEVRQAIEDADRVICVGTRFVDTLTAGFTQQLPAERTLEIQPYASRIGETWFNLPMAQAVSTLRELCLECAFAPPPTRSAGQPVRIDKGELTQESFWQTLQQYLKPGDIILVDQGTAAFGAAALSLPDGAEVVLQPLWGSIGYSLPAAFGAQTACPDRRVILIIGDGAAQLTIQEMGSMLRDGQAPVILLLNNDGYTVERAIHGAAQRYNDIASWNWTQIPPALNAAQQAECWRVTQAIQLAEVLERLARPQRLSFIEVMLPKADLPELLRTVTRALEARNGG

Row | Compound | Km (KIVD) [mM] | kcat of KIVD (KIVD) [s⁻¹] | specificity constant kcat/Km of IPDC, fold higher than towards ketovaline (IPDC) [fold]
1 | CC(C)CC(=O)C(=O)O [ketoleucine] | 37 | 49 | 4
2 | CC(C)C(=O)C(=O)O [ketovaline] | 2.8 | 48 | –
